# Key:
# [1] = system: BT549 cell line; experiment: Clonogenic assay; assay type: cell-based, human; details: BT549, 10 μM; FIG. 2B
# Procedure: The breast cancer cell line of Experimental Method 1 was dispensed into a 6-well plate at a density of 1 to 2×10^3 cells/well. After the cells were sufficiently attached, they were treated with the compound of Production Example 6 at a concentration of 0 to 30 μM and cultured for 10 days to 14 days. Next, the cultured cells were fixed with 4% formaldehyde and stained with 1% crystal violet, and the colonies were counted under a microscope.
# [2] = system: p-AMPK (Thr172); experiment: AMPK activation by p-AMPK (Thr172) Western blot in 4T1 cells; assay type: cell-based, mouse; details: 24 hours
# Procedure: [3-1] The breast cancer cell line of Experimental Method 1 above was treated with the compound of Production Example 6 at a concentration of 0 to 30 μM, and then cultured for 24 hours. Thereafter, the cells were harvested and lysed in RIPA buffer, and the protein was electrophoresed by SDS-PAGE, and then the expression level of the protein was analyzed using antibodies specific for AMPK and phospho-AMPK (Thr172). GAPDH or β-actin was used as a loading control for protein quantification.
# (§1) [3-2] The three breast cancer cell lines (4T1, BT549, and MDA-MB-231) of Experimental Method 1 were treated with each of the compound of Production Example 6 and 13 compounds, including the compounds of Production Examples 1 to 5 and 8 to 15 having a similar structure (YE-01, 02, 03, 04, 05, 08, 09, 10, 11, 12, 13, 14 and 15), at a concentration of 10 μM, and then cultured for 24 hours. In addition, each of two types of gastric cancer cell lines, brain cancer cell lines and pancreatic cancer cell lines was treated with the compound of Production Example 6 or the compound of Production Example 8 having a similar structure at a concentration of 10 μM and then cultured for 12 hours. Thereafter, the cells were harvested and lysed in RIPA buffer, and the protein was electrophoresed by SDS-PAGE, and then the expression level of the protein was analyzed using antibodies specific for AMPK and phospho-AMPK (Thr172). GAPDH or β-actin was used as a loading control for protein quantification.
# [3] = system: p-AMPK (Thr172); experiment: AMPK activation by p-AMPK (Thr172) Western blot in gastric cancer cell lines; assay type: cell-based, human; details: 10 μM, 12 hours, compared to untreated group
# Procedure: as §1
# [4] = system: p-AMPK (Thr172); experiment: AMPK activation by p-AMPK (Thr172) Western blot in pancreatic cancer cell lines; assay type: cell-based, human; details: 10 μM, 12 hours, compared to untreated group
# Procedure: as §1
# [5] = system: cleaved-PARP, Bcl-2 and Cyclin D1 proteins; experiment: Apoptosis marker Western blot in MDA-MB-231 cell line; assay type: cell-based, human; details: FIG. 5
# [6] = system: secreted MMP2 and MMP9; experiment: Secreted MMP2 and MMP9 levels, TGF-β1-treated BT549 cells; assay type: cell-based, human; details: BT549, with TGF-β1; FIG. 7B
# Procedure: The culture medium of the breast cancer cell line of Experimental Method 1 was replaced with a serum-free medium. Then, the cells were treated with 2 ng/mL of TGF-β1 and the compound of Preparation Example 6 and cultured for 20 to 24 hours. Thereafter, as described in Experimental Method 3, the expression level of the protein was measured using an antibody specific for the EMT-related protein.
# [7] = system: 4T1-luc xenograft (flank, s.c.); experiment: Tumor regression in xenograft animal model; assay type: in vivo, mouse; details: 4 mg/kg tail vein (IV) once every 3 days, 6 times; compared to Vehicle; FIG. 8A, 8B
# Description: (§2) After 4-week-old athymic nude mice (female) were purchased, only healthy mice were selected while the mice were adapted to the environment of the animal breeding room for 7 days. For identification of each mouse, the ears were marked using an ear punch. In addition, the breeding box was identified by attaching a mouse identification card describing the test number, test substance name, test item, receipt date, test date, test content, and the person in charge of the test. The environment of the animal breeding room was maintained at a temperature of 22±3° C., a relative humidity of 50±20%, 10 to 15 ventilations/hour, a 12-hour light (8:30 to 20:30)/dark cycle, and an illuminance of 150 to 300 lux. In addition, the animals were fed feed and drinking water during the breeding period, and quarantined during the acclimatization and testing periods. […]
# During a period ranging from the day the mouse breast cancer cell line 4T1-luc was injected to the end of the experiment (dissection date), the tumor volume was measured every day. […] In order to confirm the tumor regression effect, the volume of the tumor was measured before administration of the compound of Production Example 6, and at day 28 after the first administration of the compound of Production Example 6, the animals were euthanized, and the primary tumors were excised and their volumes were compared.
# [8] = system: 4T1-luc orthotopic graft (fat pad, s.c.); experiment: Survival rate in orthotopic animal model; assay type: in vivo, mouse; details: 20 mg/kg intraperitoneal once every 3 days, 6 times; compared to Vehicle; FIG. 8D
# Description: After 4-week-old athymic nude mice (female) were purchased, only healthy mice were selected while the mice were adapted to the environment of the animal breeding room for 7 days. For identification of each mouse, the ears were marked using an ear punch. In addition, the breeding box was identified by attaching a mouse identification card describing the test number, test substance name, test item, receipt date, test date, test content, and the person in charge of the test. The environment of the animal breeding room was maintained at a temperature of 22±3° C., a relative humidity of 50±20%, 10 to 15 ventilations/hour, a 12-hour light (8:30 to 20:30)/dark cycle, and an illuminance of 150 to 300 lux. In addition, the animals were fed feed and drinking water during the breeding period, and quarantined during the acclimatization and testing periods.
# The nude mice were anesthetized by inhalation with 2.5% isoflurane, and then injected with the mouse breast cancer cell line 4T1-luc of Experimental Method 1 by a sterile syringe. […]
# During a period ranging from the day the mouse breast cancer cell line 4T1-luc was injected to the end of the experiment (the date of death), the volume of the tumor was measured once every 3 days and the survival rate of the animal model was checked every day. […]
# [9] = system: 4T1-luc orthotopic graft (fat pad, s.c.); experiment: Tumor (lung) metastasis in orthotopic animal model, IVIS luminescence; assay type: in vivo, mouse; details: 20 mg/kg intraperitoneal at 2-day intervals; compared to Vehicle; FIG. 9A, 9B
# Description: as §2
# During a period ranging from the day the mouse breast cancer cell line 4T1-luc cell line was injected to the end of the experiment (dissection date), lung metastasis of the cancer cell line was checked at intervals of 1 to 2 days. After the animal model was anesthetized by inhalation with 2.5% isoflurane, luminescence intensity was measured using an in-vivo imaging system (IVIS). […]
smiles,measurement,setting,value
"COc1ccc(OC)c(/C=C/C(=O)c2ccc(NS(=O)(=O)c3ccc(Cl)cc3)cc2)c1 [Production Example 6, (E)-4-chloro-N-(4-(3-(2,5-dimethoxyphenyl)acryloyl)phenyl)benzenesulfonamide]",colony formation,[1],significantly reduced
same,phospho-AMPK protein,"[2]; 4T1, 0 to 30 μM, FIG. 5",increased in a concentration-dependent manner
same,p-AMPK level,"[2]; 4T1, 10 μM, FIG. 3B",effectively increased
same,expression of p-AMPK,[3],increased
same,expression of p-AMPK,[4],increased
same,level of Bcl-2 protein,[5],decreased
same,level of Cyclin D1 protein,[5],decreased
same,level of apoptosis marker cleaved-PARP protein,[5],increased
same,level of secreted MMP2,[6],significantly decreased
same,level of secreted MMP9,[6],significantly decreased
same,volume of the tumor,[7],decreased
same,survival rate,[8],significantly improved
same,luminescence intensity in the lung (4T1-luc lung metastasis),[9],significantly decreased
